Data set [1] has as its system A. nidulans, C. albicans, C. albicans 95-158 Flu-R, Cryp. neomormans, Candida krusei, and C. glabrata. Kind of data set: Fungicidal test, viability of treated fungal cells spotted on YPD agar. The class given is cell-based. As to conditions: for effect of amines or YPD medium on bioactivity: presence of amines or YPD medium.
For a further data set, the system named is C. albicans Day 185. Kind of data set: CLSI microdilution antifungal susceptibility assay. Particulars: for EC50 / MIC: Candida albicans; for EC50: DAY185, 50% fungal inhibitory concentration; for MIC: DAY185, lowest concentration with no fungal growth, CLSI. It is filed as cell-based. The protocol:
(§1) Synthetic pure albicanol and drimenol were dissolved in DMSO (10 mg/ml as stock solution) and used to determine their antifungal activities (minimum inhibitory concentration, MIC) against various fungi according to the microdilution assay of Clinical and Laboratory Standards Institute (CLSI (2008). Reference method for broth dilution antifungal susceptibility testing of yeasts and filamentous fungi: Approved Standard-Third Edition. Clinical and Laboratory Standards Institute 940 West Valley Road, Wayne, Pa. CLSI document M27-A3 & M38-A28. An initial assay had confirmed the antifungal activity of albicanol and drimenol; therefore, the susceptibility assay was extended to other pathogenic fungi including fluconazole resistant C. albicans, various species of candida, Cryptococcus, Aspergillus and a dermatophyte fungus.
(§2) Yeast cells or conidia (for filamentous fungi) were suspended in RPMI 1640 (with 50 mM glucose) medium to a final concentration of 10^4 cfu/ml and distributed in a 96-well microplate to a total volume of 100 μl/well. Albicanol and drimenol were added into the wells and serial dilutions (broad or narrow range) with replicates were made, and wells with or without DMSO served as controls. Plates were incubated without shaking at 37° C. for 24-48 h for yeasts and 30° C. for 4 days for filamentous fungi (Aspergillus and Trichophyton sp). The MIC was defined as the lowest compound concentration at which no growth occurred, as determined visually and by OD600 measurement (or microscopically, inverted). As a positive control, amphotericin B (AMB) (1 μg/ml) was also included in parallel. Cytotoxicity of albicanol and drimenol was determined using human intestinal epithelial cell lines (Int-407) by utilizing cell viability assay kit of Promega.
A general note: In broth dilution the organism is exposed to a series of concentrations in liquid medium.

In another data set the test system is T. equinum. Put plainly: CLSI microdilution antifungal susceptibility assay. It is filed as cell-based. Particulars: for EC50: 50% fungal inhibitory concentration; for MIC: lowest concentration with no fungal growth, CLSI. As to the method: as §1, §2
The subject of a further data set is Cryp. neoformans. Put plainly: CLSI microdilution antifungal susceptibility assay. It is filed as cell-based. Particulars: for EC50 / MIC: Cryptococcus neoformans; for EC50: 50% fungal inhibitory concentration; for MIC: lowest concentration with no fungal growth, CLSI. The protocol: as §1, §2
For a further data set, the system named is C. albicans SC5314. Kind of data set: CLSI microdilution antifungal susceptibility assay. The class given is cell-based. As to conditions: for EC50 / MIC: Candida albicans; for EC50: 50% fungal inhibitory concentration; for MIC: lowest concentration with no fungal growth, CLSI. The protocol: as §1, §2
Data set [2] relates to barcoded mutants of Saccharomyces cerevisiae. Put plainly: Genome-wide fitness (haploinsufficiency) profiling, yeast TAG4 microarray. The class given is cell-based. As to conditions: at 20% growth inhibitory concentration; 20 generations.
In the next data set the test system is various fungi. Kind of data set: Fungal EC50 and selective index summary. It is filed as cell-based. Particulars: against various fungi; read-out: effective fungal concentration-50 (EC50). The protocol:
as §2

Data set [3] has as its system Caenorhabditis elegans (worm). Put plainly: Toxicity to worms in the Candidiasis model. The class given is in vivo. Particulars: at concentrations that inhibit fungal growth. The protocol:
(§3) In order to determine antifungal efficacy and toxicity of albicanol and drimenol simultaneously, Caenorhabditis elegans (worm), a non-mammalian host model of Candidiasis was used. Worms fed with C. albicans yeast cells were incubated in RPMI medium in the presence or absence of drimenol. After 4-5 days worms were scored for survival under an inverted microscope and images were recorded. […] Note dead worms (straight shapes) and clusters of fungal growth in wells without drimenol (−Dri).

Data set [4] is described as follows: Cytotoxicity, Promega's cell viability assay kit. It is filed as cell-based. Particulars: human, Int-407 intestinal epithelial cells; summary in description; read-out: cytotoxic inhibitory concentration (IC50) against Int. 407. The protocol:
as §2

The subject of another data set is C. albicans. Put plainly: Caenorhabditis elegans host model of Candidiasis. The class given is in vivo. Particulars: 50 μg/ml; RPMI medium; scored after 4-5 days. The protocol:
as §3

The next data set has as its system dermatophyte fungi. Kind of data set: MIC summary for dermatophyte fungi. It is filed as cell-based. The protocol: as §1
(§4) Yeast cells or conidia (for filamentous fungi) were suspended in RPMI 1640 (with 50 mM glucose) medium to a final concentration of 10^4 cfu/ml and distributed in a 96-well microplate to a total volume of 100 μl/well. […] The MIC was defined as the lowest compound concentration at which no growth occurred, as determined visually and by OD600 measurement (or microscopically, inverted). […] Cytotoxicity of albicanol and drimenol was determined using human intestinal epithelial cell lines (Int-407) by utilizing cell viability assay kit of Promega.

The test system of data set [5] is fluconazole resistant C. alibcans, Cryptococcus sp. and Aspergillus sp. Put plainly: MIC summary for fungi. It is filed as cell-based. As to conditions: Candida albicans, read-out: minimum inhibitory concentration (MIC). As to the method: as §1, §4

Each structure is given as a SMILES string. In brackets after ≈: the same amount, converted by molar mass.

For `CC1=CC[C@H]2C(C)(C)CCC[C@]2(C)[C@H]1CO` [drimenol, (−)-drimenol], in data set [1] (all the fungi tested, 100 μg/ml for 48 h, read-out: minimum fungicidal concentration, MFC), the MFC worked out at 100 mg/L (≈ 450 µM). Further, in data set [1], the “effect of amines or YPD medium on bioactivity” value is reported as “not affected”. The “Selective Index (Int-407 IC50/fungal EC50)” value in the data set on C. albicans Day 185 is reported as 4.16; in the data set with T. equinum, 6.25 (6.25); in the data set on Cryp. neoformans, 3.12; in the data set on C. albicans SC5314, 2.27. Also, the EC50 with C. albicans Day 185 is 12 mg/L (≈ 54 µM); with T. equinum, 8 mg/L (≈ 36 µM); in the data set with Cryp. neoformans, 16 mg/L (≈ 72 µM); with C. albicans SC5314, 22 mg/L (≈ 98.9 µM); in the data set on various fungi, 5 to 30 mg/L (≈ 22.5 to 135 µM). The MIC was 25 mg/L (≈ 112 µM) against C. albicans Day 185; 5 mg/L (≈ 22.5 µM) in the data set on T. equinum; 30 mg/L (≈ 135 µM) against Cryp. neoformans; 40 mg/L (≈ 180 µM) against C. albicans SC5314; 5 to 15 mg/L (≈ 22.5 to 67.5 µM) against dermatophyte fungi; 25 to 50 mg/L (≈ 112 to 225 µM) in [5]. The “strains/genes depleted at the log ratio of >1.5” value in data set [2] turned out to be 34. Further, the cytotoxicity to worms result in data set [3] was “less or no cytotoxicity to worms”. In addition, in data set [4], the CC50 is approximately 50 mg/L (≈ 225 µM). The “protection of worms from C. albicans mediated death” value in the data set on C. albicans is “prevented C. albicans growth and protected worms from C. albicans mediated death”.

As for `C=C1CC[C@H]2C(C)(C)CCC[C@]2(C)[C@H]1CO` [Albicanol, (+)-albicanol], the “effect of amines or YPD medium on bioactivity” value in data set [1] was “not affected”. In addition, the “Selective Index (Int-407 IC50/fungal EC50)” value is on record as 2.27 in the data set on C. albicans Day 185, 6.25 (6.25) with T. equinum, 2.27 in the data set with Cryp. neoformans and 2 in the data set on C. albicans SC5314. The EC50 with C. albicans Day 185 was 22 mg/L (≈ 98.9 µM); in the data set with T. equinum, 8 mg/L (≈ 36 µM); with Cryp. neoformans, 22 mg/L (≈ 98.9 µM); with C. albicans SC5314, 25 mg/L (≈ 112 µM); with various fungi, 5 to 30 mg/L (≈ 22.5 to 135 µM). The MIC was 40 mg/L (≈ 180 µM) against C. albicans Day 185; 15 mg/L (≈ 67.5 µM) in the data set on T. equinum; 40 mg/L (≈ 180 µM) in the data set on Cryp. neoformans; 50 mg/L (≈ 225 µM) against C. albicans SC5314; 5 to 15 mg/L (≈ 22.5 to 67.5 µM) against dermatophyte fungi; 25 to 50 mg/L (≈ 112 to 225 µM) in data set [5]. The cytotoxicity to worms result in [3] is “less or no cytotoxicity to worms”. The CC50 in data set [4] is approximately 50 mg/L (≈ 225 µM).

The record behind these values is US8980951B2, “Sesquiterpenes for antifungal applications” (Kansas State University Research Foundation, priority 2011, dated 2015).
